Experimental findings from patent US12351581B2, “Compounds for FGFR inhibition” (Cogent Biosciences, Inc., priority 2023, dated 2025) are described below.

Assay [1] addresses T1, FGFR2 V564F (Homo sapiens, UniProt P21802, V564F).
T1 construct: biochemical assays using purified intracellular domains of the respective isoforms; purchased SignalChem Biotech F05-12FG
Kind of assay: FGFR mutant enzyme assay (HTRF KinEASE-TK). Format: biochemical. To be noted: ATP 1.5 uM. Here is the method:
(§1) Activity against FGFR wild type and mutant enzymes were determined in biochemical assays using purified intracellular domains of the respective isoforms using HTRF KinEASE-TK assay technology from CisBio, now PerkinElmer. (Catalogue number 62TK0PEC). Briefly test compounds were tested in 11 point 1:3 serial dilutions, typical final concentration range from 10,000 nM to 0.17 nM. Test compounds were dissolved in DMSO and added to assay plates using acoustic transfer. Enzyme was pre-incubated with test compound for 30 minutes and the assay was initiated by addition of ATP and TK-peptide substrate. After 60 minutes at room temperature the reaction was quenched with detection reagent and incubated for an additional 60 minutes at room temperature. The plates were read using a multimode reader and the emission ratio of 665 nm to 615 nm was determined. This ratio was converted to percent of control (POC). [1-(high control-sample signal)/(high control-low control)]*100. Wells without compound were used to determine high control values and wells without enzyme were used to determine low control values. The POC values were fit using a four-parameter logistic model and the value where the fit curve was equal to 50 POC was reported as the IC50 using the Signals Vitro Vivo software package (PerkinElmer). Final assay conditions were: 50 mM HEPES pH7.5, 10 mM MgCl2, 1 mM EDTA, 0.01% Brij-35, 2 mM MnCl2, 1 mM DTT, and 0.5 uM TK-peptide. The enzyme source, catalogue number, final enzyme concentration, and final ATP concentration can be found in the tables 1-2 below.
Background: In TR-FRET formats the signal depends on donor and acceptor labels being close together.

For assay [2], the target named is T2, FGFR2 N549H (Homo sapiens, UniProt P21802, N549H).
T2 construct: biochemical assays using purified intracellular domains of the respective isoforms; purchased Carna Bioscience 08-532
The experiment in a line: FGFR mutant enzyme assay (HTRF KinEASE-TK). Format: biochemical. To be noted: ATP 0.9 uM. Here is the method: as §1

Assay [3] deals with T3, FGFR2 V564I (Homo sapiens, UniProt P21802, V564I).
T3 construct: biochemical assays using purified intracellular domains of the respective isoforms; purchased Carna Bioscience 08-546
The experiment in a line: FGFR mutant enzyme assay (HTRF KinEASE-TK). The format is biochemical. Particulars: ATP 0.4 uM. On the procedure:
as §1

For assay [4], the target named is FGFR2-WT (Homo sapiens, UniProt P21802). The experiment in a line: Phosphorylated FGFR2-WT (pFGFR2-WT) cell assay, KATOIII cells. Particulars: 1 hour incubation, phospho FGFR2 HTRF. The format is cell-based. Here is the method: KATOIII cells were grown in the appropriate growth medium, IMDM supplemented with 20% fetal bovine serum. Cells were seeded into a 384-well at 1×10^5 cells/25 μL/well. Cells were treated with compound using three-fold serial dilutions at final concentrations ranging from 10 μM to 0.5 nM. Compound was incubated on cells for 1 hour at 37° C., 5% CO2.
Following the 1-hour incubation with compounds, cell lysates were prepared and phospho FGFR2 was measured using the HTRF Phospho-FGFR2 (TYR653/654) Detection Kits (CisBio, cat #64FGFR2Y6PEG). 8 μL of cell lysis buffer (4×) supplied with 1× Phospho and Total protein blocking reagent (CisBio, cat #64FGFR2Y6PEG, CisBio, cat #64KB1AAC) was then added to the wells. Cells were incubated with lysis buffer for 40 minutes at 4° C. under shaking conditions. Plates were centrifuged at 1500 rpm for 3 min and then 16 μL of cell lysate was transferred from the cell-culture plate to a small volume detection plate with the added premixed antibody solutions (4 μL) (CisBio, cat #64FGFR2Y6PEG). Plates were centrifuged at 1000 rpm for 1 min then incubated at 25° C. for 120 min, then overnight at 4° C. Plates were read on the En Vision multimode plate reader via HTRF dual wavelength detection. One hundred percent of control (POC) was determined using DMSO treated samples, and 0 POC was determined using the top concentration of a control compound. A 4-parameter logistic curve was fit to the POC values as a function of compound concentration to determine the IC50 value.

The target of assay [5] is T4, FGFR2 (Homo sapiens, UniProt P21802).
T4 construct: biochemical assays using purified intracellular domains of the respective isoforms; purchased Carna Bioscience 08-134
Kind of assay: FGFR wild type enzyme assay (HTRF KinEASE-TK). Format: biochemical. To be noted: ATP 2 uM. Here is the method:
as §1

The mark [6] stands for this setting: compound table after the examples, read-out: Enz FGFR2.

Where two headings read alike, the source gives them in different places.

T4 sequence (P21802 399-821 limits assumed): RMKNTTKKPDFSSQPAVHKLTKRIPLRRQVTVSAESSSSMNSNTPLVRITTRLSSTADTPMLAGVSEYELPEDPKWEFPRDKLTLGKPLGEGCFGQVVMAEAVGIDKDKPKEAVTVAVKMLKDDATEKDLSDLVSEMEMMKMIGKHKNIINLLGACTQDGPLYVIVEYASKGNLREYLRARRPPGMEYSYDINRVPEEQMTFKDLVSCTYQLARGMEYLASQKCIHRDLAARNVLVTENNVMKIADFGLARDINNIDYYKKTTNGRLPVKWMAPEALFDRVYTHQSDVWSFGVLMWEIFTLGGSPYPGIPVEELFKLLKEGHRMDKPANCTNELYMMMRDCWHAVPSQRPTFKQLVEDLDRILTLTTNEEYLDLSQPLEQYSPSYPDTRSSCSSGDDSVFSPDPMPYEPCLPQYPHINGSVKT
Sequence of FGFR2-WT (P21802 430-767 limits assumed): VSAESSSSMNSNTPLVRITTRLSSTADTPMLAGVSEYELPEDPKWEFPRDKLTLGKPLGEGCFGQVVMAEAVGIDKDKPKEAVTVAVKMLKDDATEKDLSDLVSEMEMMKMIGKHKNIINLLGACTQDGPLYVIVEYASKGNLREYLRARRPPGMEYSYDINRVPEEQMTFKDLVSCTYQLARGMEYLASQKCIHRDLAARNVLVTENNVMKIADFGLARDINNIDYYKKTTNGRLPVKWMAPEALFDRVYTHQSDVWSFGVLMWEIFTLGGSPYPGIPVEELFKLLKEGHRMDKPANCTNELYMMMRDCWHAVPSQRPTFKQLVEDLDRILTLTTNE
T3 sequence (P21802 399-821 V564I limits assumed): as the sequence (P21802 399-821 limits assumed) above, with V166I counted along it
T2 sequence (P21802 399-821 N549H limits assumed): as the sequence (P21802 399-821 limits assumed) above, with N151H counted along it
T1 sequence (P21802 399-821 V564F limits assumed): as the sequence (P21802 399-821 limits assumed) above, with V166F counted along it

Turning to `Cc1c(-c2cc(O[C@@H](C)c3ccc(F)cn3)c3c(C#N)cnn3c2)cnn1[C@H]1CC[C@H](O)CC1` [Compound 45, 4-((S)-1-(5-fluoropyridin-2-yl)ethoxy)-6-(1-((1r,4S)-4-hydroxycyclohexyl)-5-methyl-1H-pyrazol-4-yl)pyrazolo[1,5-a]pyridine-3-carbonitrile], the IC50 in assay [1] stood at 13 nM; in assay [2] it was 7 nM; in assay [3], 23 nM; in assay [4], 60 nM; in assay [5] (Table 3, read-out: FGFR2 Enz), 6.5 nM; in assay [5] (setting [6]), 6.5 nM.
Take `CC(=O)N[C@H]1CC[C@H](n2ncc(-c3cc(O[C@H](C)c4ccc(F)cn4)c4c(C#N)cnn4c3)c2C)CC1` [Compound 36, N-((1R,4r)-4-(4-(3-cyano-4-((R)-1-(5-fluoropyridin-2-yl)ethoxy)pyrazolo[1,5-a]pyridin-6-yl)-5-methyl-1H-pyrazol-1-yl)cyclohexyl)acetamide]: the IC50 was 1.5 nM in assay [1]; 0.5 nM in assay [2]; 2 nM in assay [3]; 4 nM in assay [4]; 0.4 nM in assay [5] (Table 3, read-out: FGFR2 Enz); 0.4 nM in assay [5] (setting [6]).
With `Cc1c(-c2cc(O[C@H](C)c3ccccn3)c3c(C#N)cnn3c2)cnn1C1CCN(C)CC1` [Compound 7, (R)-6-(5-methyl-1-(1-methylpiperidin-4-yl)-1H-pyrazol-4-yl)-4-(1-(pyridin-2-yl)ethoxy)pyrazolo[1,5-a]pyridine-3-carbonitrile], the IC50 in assay [1] was 1 nM; in assay [2] it was 0.5 nM; in assay [3], 1 nM; in assay [4], 6 nM; in assay [5] (Table 3, read-out: FGFR2 Enz) it was 0.3 nM; in assay [5] (setting [6]), 0.3 nM.
With `Cc1c(-c2cc(O[C@H](C)c3ccc(F)cn3)c3c(C#N)cnn3c2)cnn1C1CCS(=O)(=O)CC1` [Compound 33, (R)-6-(1-(1,1-dioxidotetrahydro-2H-thiopyran-4-yl)-5-methyl-1H-pyrazol-4-yl)-4-(1-(5-fluoropyridin-2-yl)ethoxy)pyrazolo[1,5-a]pyridine-3-carbonitrile], the IC50 worked out at 2 nM in assay [1]; 0.7 nM in assay [2]; 3 nM in assay [3]; 6 nM in assay [4]; 1 nM in assay [5] (Table 3, read-out: FGFR2 Enz); 1 nM in assay [5] (setting [6]).
Turning to `Cc1c(-c2cc(O[C@@H](CO)c3ccc(F)cn3)c3c(C#N)cnn3c2)cnn1[C@H]1CC[C@H](O)CC1` [Compound 66, 4-((R)-1-(5-fluoropyridin-2-yl)-2-hydroxyethoxy)-6-(1-((1r,4R)-4-hydroxycyclohexyl)-5-methyl-1H-pyrazol-4-yl)pyrazolo[1,5-a]pyridine-3-carbonitrile], the IC50 in assay [1] amounted to 139 nM; in assay [2], 106 nM; in assay [3], 369 nM; in assay [4], 793 nM; in assay [5] (Table 3, read-out: FGFR2 Enz), 105 nM; in assay [5] (setting [6]), 110 nM.
As to `Cc1c(-c2cc(O[C@H](C)c3ccc(F)cn3)c3c(C#N)cnn3c2)cnn1[C@@H]1CCCN(C(=O)[C@H](C)O)C1` [Compound 49, 4-((R)-1-(5-fluoropyridin-2-yl)ethoxy)-6-(1-((R)-1-((S)-2-hydroxypropanoyl)piperidin-3-yl)-5-methyl-1H-pyrazol-4-yl)pyrazolo[1,5-a]pyridine-3-carbonitrile], the IC50 was determined as 8 nM in assay [1]; 3 nM in assay [2]; 10 nM in assay [3]; 15 nM in assay [4]; 2.6 nM in assay [5] (Table 3, read-out: FGFR2 Enz); 2.6 nM in assay [5] (setting [6]).
`C[C@@H](Oc1cc(-c2ccc(N3CC[C@@H](O)[C@H](O)C3)nc2)cn2ncc(C#N)c12)c1ccc(F)cn1` [Compound 64, 6-(6-((3R,4R)-3,4-dihydroxypiperidin-1-yl)pyridin-3-yl)-4-((R)-1-(5-fluoropyridin-2-yl)ethoxy)pyrazolo[1,5-a]pyridine-3-carbonitrile]: the IC50 in assay [1] turned out to be 0.6 nM; in assay [2], 0.2 nM; in assay [3], 0.7 nM; in assay [4], 4 nM; in assay [5] (Table 3, read-out: FGFR2 Enz) it was 0.3 nM.
Regarding `Cc1c(-c2cc(O[C@H](C)c3ccc(F)cn3)c3c(C#N)cnn3c2)cnn1[C@H]1CC[C@@H](O)CC1` [Compound 46, 4-((R)-1-(5-fluoropyridin-2-yl)ethoxy)-6-(1-((1s,4S)-4-hydroxycyclohexyl)-5-methyl-1H-pyrazol-4-yl)pyrazolo[1,5-a]pyridine-3-carbonitrile], the IC50 is 1 nM in assay [1]; 0.3 nM in assay [2]; 1 nM in assay [3]; 3 nM in assay [4]; 0.3 nM in assay [5] (Table 3, read-out: FGFR2 Enz); 0.3 nM in assay [5] (setting [6]).
As for `C[C@@H](Oc1cc(-c2ccc(N3CC[C@H](O)[C@@H](O)C3)nc2)cn2ncc(C#N)c12)c1ccc(F)cn1` [Compound 63, 6-(6-((3S,4S)-3,4-dihydroxypiperidin-1-yl)pyridin-3-yl)-4-((R)-1-(5-fluoropyridin-2-yl)ethoxy)pyrazolo[1,5-a]pyridine-3-carbonitrile], the IC50 in assay [1] turned out to be 1 nM; in assay [2], 0.3 nM; in assay [3] it was 1 nM; in assay [4] it was 3.3 nM; in assay [5] (Table 3, read-out: FGFR2 Enz), 0.3 nM; in assay [5] (setting [6]), 0.3 nM.
On to `C[C@@H](Oc1cc(-c2cnn(CCO)c2N)cn2ncc(C#N)c12)c1ccc(F)cn1` [Compound 31, (R)-6-(5-amino-1-(2-hydroxyethyl)-1H-pyrazol-4-yl)-4-(1-(5-fluoropyridin-2-yl)ethoxy)pyrazolo[1,5-a]pyridine-3-carbonitrile], for which the IC50 in assay [1] is 5 nM; in assay [2], 2 nM; in assay [3], 5.6 nM; in assay [4], 7 nM; in assay [5] (Table 3, read-out: FGFR2 Enz), 1 nM; in assay [5] (setting [6]), 1 nM.
As to `CC(=O)N1CCC[C@H](n2ncc(-c3cc(O[C@H](C)c4ccc(F)cn4)c4c(C#N)cnn4c3)c2C)C1` [Compound 13, 6-(1-((S)-1-acetylpiperidin-3-yl)-5-methyl-1H-pyrazol-4-yl)-4-((R)-1-(5-fluoropyridin-2-yl)ethoxy)pyrazolo[1,5-a]pyridine-3-carbonitrile], the IC50 in assay [1] turned out to be 1.6 nM; in assay [2], 0.6 nM; in assay [3], 2 nM; in assay [4], 3.8 nM; in assay [5] (Table 3, read-out: FGFR2 Enz), 0.5 nM; in assay [5] (setting [6]) it was 0.6 nM.
Turning to `Cc1c(-c2cc(O[C@H](C)c3ccc(F)cn3)c3c(C#N)cnn3c2)cnn1C1CCN(C(=O)[C@H](C)O)CC1` [Compound 41, 4-((R)-1-(5-fluoropyridin-2-yl)ethoxy)-6-(1-(1-((S)-2-hydroxypropanoyl)piperidin-4-yl)-5-methyl-1H-pyrazol-4-yl)pyrazolo[1,5-a]pyridine-3-carbonitrile], the IC50 in assay [1] came to 2 nM; in assay [2], 0.7 nM; in assay [3], 2 nM; in assay [4], 4 nM; in assay [5] (Table 3, read-out: FGFR2 Enz), 0.5 nM; in assay [5] (setting [6]), 0.5 nM.
Turning to `C[C@H](Oc1cc(-c2cnn(C3CCNCC3)c2)cn2ncc(C#N)c12)c1ccccn1` [Compound 3, (S)-6-(1-(piperidin-4-yl)-1H-pyrazol-4-yl)-4-(1-(pyridin-2-yl)ethoxy)pyrazolo[1,5-a]pyridine-3-carbonitrile], the IC50 amounted to 128 nM in assay [4]; 21 nM in assay [5] (Table 3, read-out: FGFR2 Enz); 21 nM in assay [5] (setting [6]).
